Results on 2 compounds are retold here after US20080213275A1, “USE OF MTKI 1 FOR TREATING OR PREVENTING BONE CANCER” (priority 2006, published 2008).

For series [1] the following is noted: oral gavage, once daily.
Series [2] has as its system MDA B231 bone homing clone cells. The series is described as follows: Bone cancer metastasis model, histological sections after 42 days. The series is classed as in vivo, mice. The settings on record: po, qd. As to the method: (§1) Male C3H/HeNCrl mice for the NCTC2472 mouse fibrosarcoma cells (20-25 g, Charles River, Sulzfeld, Germany) or female NMRI Nude mice for the MDA MB 231 human breast cancer cells (Janvier, France) were used. Induction of bone cancer was carried out as previously described (Schwei et al., 1999^1). Induction of general anaesthesia was performed under 4% isoflurane in a mixture of 30% O2 and 70% air (1000 ml/ min). Anaesthesia was then maintained at 2.5% isoflurane for the duration of the surgical procedure. The left hind paw was shaved and disinfected with povidone-iodine followed by 70% ethanol. A superficial 1 cm incision was made over the knee overlaying the patella. The patella ligament was cut, exposing the condyles of the distal femur. A 23-gauge needle was inserted at the level of the intercondylar notch and the intramedullary canal of the femur to create a cavity for injection of the cells. Tumour cells (2.5×10^6 cells/20 μl) were then injected into the bone cavity using a 0.3 ml syringe. To prevent leakage of cells outside the bone, the injection site was sealed with dental acrylic (Paladur, Heraeus Kulzer, GmbH, Wehrheim, Germany) and the wound closed with skin stitches. For the sham-operated group, an identical procedure was followed except that medium without cells was injected.
In the bone cancer metastasis model MDA B231 bone homing clone cells were inoculated into the tibia as described. After 42 days, animals were sacrificed and the amputated paws placed in fixative. The legs were de-calcified and sections cut to determine levels of bone destruction.

The subject of series [3] is NCTC2472 fibrosarcoma or MDA-MB231 breast cancer cells injected into bone. The series is described as follows: Evaluation of bone destruction by μCT of ipsilateral left hind limbs. It is filed as in vivo, mice. The settings on record: tumor inoculated animals, dosed at MTD; compared with vehicle and sham. As to the method:
as §1

Series [4] is described as follows: Tissue distribution profile. The series is classed as in vivo.
The subject of series [5] is NCTC2472 fibrosarcoma or MDA-MB231 breast cancer cells injected into bone. The series is described as follows: Spontaneous paw lifting behaviour (pain) in bone cancer model. It is filed as in vivo, mice. The conditions noted are these: day 14 post tumor cell inoculation; dosed at MTD by oral gavage once daily; 4 minutes observation; vehicle 80%. As to the method:
as §1, with “injected. […]” for “injected.”

The structures appear in SMILES notation.

In the case of `COc1cc2ncnc3c2cc1OCCCCCN(C)Cc1ccc(Br)cc1N3` [Compound 1, 4,6-ethanediylidenepyrimido[4,5-b][6,1,12]benzoxadiazacyclo-pentadecine, 17-bromo-8,9,10,11,12,13,14,19-octahydro-20-methoxy-13-methyl], in series [1], the “maximum tolerated dose (MTD)” value is on record as 200 mg per kg. Also, in series [2] (100 mg per kg), the “detectable tumor in histological sections (FIG. 3)” value is given as “detectable tumor is hardly present”; the “signs of tumor cells and bone destruction” value was “no signs of tumor cell not any signs bone destruction”. The “amount of tumor growth and amount of bone destruction” value in series [2] (dose dependence) was “dose dependently reduced”. Moreover, the “osteolytic bone destruction (μCt reconstructions, FIG. 2)” value in series [3] is listed as “significantly less bone destruction”. Further, the “tissue distribution to bone marrow” value in series [4] (in vivo) was “preferential tissue distribution to the bone marrow compartment”. In addition, the “blood brain barrier penetration” value in series [4] (intact blood brain barrier) is listed as “ability to cross the intact blood brain barrier”. Besides, the “percentage of the time the left hind paw was raised (spontaneous paw lifting)” value in series [5] is recorded as around 8%.

`COc1cc2ncnc(Nc3ccc(F)c(Cl)c3)c2cc1OCCCN1CCOCC1` [Iressa, reference compound]: the “maximum tolerated dose (MTD)” value in series [1] worked out at 50 mg per kg. Further, in series [3], the “osteolytic bone destruction (μCt reconstructions, FIG. 2)” value is given as “Considerable bone loss”. The “percentage of the time the left hind paw was raised (spontaneous paw lifting)” value in series [5] is “more than 35%”.
